Experimental data from the NIST ThermoML archive (doi:10.1021/acs.jced.9b00442).

Tests used:
[1] = 100 kPa, Liquid; for electrical conductivity: Frequency=0.0006 MHz, Alternating current cell with electrodes; for viscosity: Concentric cylinders viscometry; for mass density: Vibrating tube method
[2] = refractive index (Na D-line) (dimensionless); conditions: 100 kPa, Liquid, Standard Abbe refractometry

CC[N+](C)(C)CCOC.O=S(=O)([N-]S(=O)(=O)C(F)(F)F)C(F)(F)F
Conditions	electrical conductivity [S/m]	mass density [kg/m3]	refractive index	viscosity [mPa·s]
[1], 283.15 K	0.141	–	–	–
[1], 288.15 K	0.182	1440.5	–	100.4
[1], 289.15 K	–	1439.5	–	–
[1], 290.15 K	–	1438.6	–	–
[1], 291.15 K	–	1437.6	–	–
[1], 292.15 K	–	1436.7	–	–
[1], 293.15 K	0.23	1435.7	–	78.3
[1], 294.15 K	–	1434.8	–	–
[1], 295.15 K	–	1433.8	–	–
[1], 296.15 K	–	1432.8	–	–
[1], 297.15 K	–	1431.9	–	–
[1], 298.15 K	0.285	1431	–	61.5
[1], 299.16 K	–	1430	–	–
[1], 300.16 K	–	1429.1	–	–
[1], 301.15 K	–	1428.1	–	–
[1], 302.15 K	–	1427.2	–	–
[1], 303.15 K	0.347	1426.2	–	49.5
[1], 304.15 K	–	1425.3	–	–
[1], 305.15 K	–	1424.4	–	–
[1], 306.15 K	–	1423.4	–	–
[1], 307.15 K	–	1422.5	–	–
[1], 308.15 K	0.415	1421.6	–	40.5
[1], 309.15 K	–	1420.6	–	–
[1], 310.15 K	–	1419.7	–	–
[1], 311.15 K	–	1418.8	–	–
[1], 312.15 K	–	1417.8	–	–
[1], 313.15 K	0.489	1416.9	–	33.9
[1], 314.15 K	–	1416	–	–
[1], 315.15 K	–	1415.1	–	–
[1], 316.15 K	–	1414.1	–	–
[1], 317.15 K	–	1413.2	–	–
[1], 318.15 K	0.57	1412.3	–	28.2
[1], 319.15 K	–	1411.4	–	–
[1], 320.15 K	–	1410.4	–	–
[1], 321.15 K	–	1409.5	–	–
[1], 322.15 K	–	1408.6	–	–
[1], 323.15 K	0.659	1407.7	–	24
[1], 324.15 K	–	1406.8	–	–
[1], 325.15 K	–	1405.9	–	–
[1], 326.15 K	–	1404.9	–	–
[1], 327.15 K	–	1404	–	–
[1], 328.15 K	–	1403.1	–	20.6
[1], 329.15 K	–	1402.2	–	–
[1], 330.15 K	–	1401.3	–	–
[1], 331.15 K	–	1400.4	–	–
[1], 332.15 K	–	1399.4	–	–
[1], 333.15 K	–	1398.5	–	18
[1], 334.15 K	–	1397.6	–	–
[1], 335.16 K	–	1396.7	–	–
[1], 336.15 K	–	1395.8	–	–
[1], 337.15 K	–	1394.9	–	–
[1], 338.15 K	–	1394	–	15.6
[1], 339.15 K	–	1393.1	–	–
[1], 340.15 K	–	1392.2	–	–
[1], 341.15 K	–	1391.3	–	–
[1], 342.15 K	–	1390.4	–	–
[1], 343.15 K	–	1389.5	–	13.7
[1], 344.15 K	–	1388.6	–	–
[1], 345.15 K	–	1387.7	–	–
[1], 346.15 K	–	1386.7	–	–
[1], 347.15 K	–	1385.8	–	–
[1], 348.15 K	–	1384.9	–	12.2
[1], 349.15 K	–	1384	–	–
[1], 350.15 K	–	1383.1	–	–
[1], 351.15 K	–	1382.2	–	–
[1], 352.15 K	–	1381.3	–	–
[1], 353.15 K	–	1380.4	–	11
[1], 354.15 K	–	1379.5	–	–
[1], 355.15 K	–	1378.6	–	–
[1], 356.15 K	–	1377.7	–	–
[1], 357.15 K	–	1376.9	–	–
[1], 358.15 K	–	1376	–	9.7
[1], 359.15 K	–	1375.1	–	–
[1], 360.15 K	–	1374.2	–	–
[1], 361.15 K	–	1373.3	–	–
[1], 362.16 K	–	1372.4	–	–
[1], 363.15 K	–	1371.5	–	8.8
[2], 283.15 K	–	–	1.4164	–
[2], 288.15 K	–	–	1.415	–
[2], 293.15 K	–	–	1.4136	–
[2], 298.15 K	–	–	1.4121	–
[2], 303.15 K	–	–	1.4107	–
[2], 308.15 K	–	–	1.4092	–
[2], 313.15 K	–	–	1.4078	–
[2], 318.15 K	–	–	1.4065	–
[2], 323.15 K	–	–	1.4051	–
[2], 328.15 K	–	–	1.4037	–
[2], 333.15 K	–	–	1.4024	–
[2], 338.15 K	–	–	1.4011	–
[2], 343.15 K	–	–	1.3998	–
[2], 348.15 K	–	–	1.3985	–
[2], 353.15 K	–	–	1.3972	–
[2], 358.15 K	–	–	1.3959	–
